Results reported in US20140187505A1, “Cardiac Glycosides to Treat Cystic Fibrosis and Other IL-8 Dependent Disorders” (priority 2002, published 2014).
Read-outs that look alike come from different tables or passages of the source.

How the values were obtained:
[1] = eluent acetonitrile/water 45:55; cited from earlier work
[2] = mobile phase: methanol/water 30:70; cited from earlier work
[3] = tested on: guinea-pig heart Na^+-K^+-ATPase; details: cited from earlier work
[4] = octanol/water (20 mM TRIS-HCl, pH 7.4), cited from earlier work
[5] = tested on: IL-8 secretion from cystic fibrosis lung epithelial IB3-1 cells

Molecule | K retentions for reversed-phase high pressure liquid chromatography [1] | RM values (lipophilicity, reversed-phase thin layer chromatography) [2] | ID50 [3] | P (partition coefficient in octanol/water system) [4] | Activity on IL-8 secretion ([5]; at a concentration of 1000 nM (1 micromolar)) | IC50 ([5]; read-out: IC50 nmol/L in cells, 50% suppression of spontaneous IL-8 secretion, IB3-1 cells, 48 hours) [nmol/L] | R values for reversed-phase thin layer chromatography [2] | P (partition coefficient in octanol/water system) ([4]; listed as B-methyl digitoxin)
12-Acetyl-β-methyldigoxin | 4.04 | 1.26 | 25.55 ± 1.70 ×10^−4 mol l^−1 | 746.0 ± 71.3 | – | – | – | –
CC(=O)O[C@H]1CC[C@@]2(C)[C@H](CC[C@@H]3[C@@H]2C[C@@H](OC(C)=O)[C@]2(C)[C@@H](C4=CC(=O)OC4)CC[C@]32O)C1 (single isomer, unassigned; diac) [digoxigenin3,12 diAC, digoxigenin 3,12 diAC] | – | – | – | – | entirely inactive | > 1000 | – | –
CC(=O)O[C@@H]1C[C@H]2[C@@H](CC[C@@H]3C[C@@H](O[C@H]4C[C@H](O)[C@H](O[C@H]5C[C@H](O)[C@H](O[C@H]6C[C@H](O)[C@H](O)[C@@H](C)O6)[C@@H](C)O5)[C@@H](C)O4)CC[C@@]32C)[C@@]2(O)CC[C@H](C3=CC(=O)OC3)[C@@]12C [12-Acetyldigoxin] | 1.60 | 0.89 | 20.90 ± 0.98 ×10^−4 mol l^−1 | 195.0 ± 17.5 | – | – | – | –
CC(=O)O[C@H]1C[C@]2(O)[C@@H]3CC[C@@H]4C[C@@H](O[C@H]5C[C@H](O)[C@H](O[C@H]6C[C@H](O)[C@H](O[C@H]7C[C@H](O)[C@H](O)[C@@H](C)O7)[C@@H](C)O6)[C@@H](C)O5)CC[C@]4(C)[C@H]3CC[C@]2(C)[C@H]1C1=CC(=O)OC1 [16-Acetylgitoxin] | 2.27 | 0.89 | 0.85 ± 0.01 ×10^−4 mol l^−1 | 144.0 ± 32.8 | – | – | – | –
C[C@H]1O[C@@H](O[C@H]2[C@@H](O)C[C@H](O[C@H]3[C@@H](O)C[C@H](O[C@H]4CC[C@@]5(C)[C@H](CC[C@@H]6[C@@H]5CC[C@]5(C)[C@@H](C7=CC(=O)OC7)[C@@H](OC=O)C[C@]65O)C4)O[C@@H]3C)O[C@@H]2C)C[C@H](O)[C@@H]1O [16-Formylgitoxin] | 1.82 | 0.84 | 0.78 ± 0.01 ×10^−4 mol l^−1 | 110.9 ± 6.2 | – | – | – | –
C[C@H]1O[C@@H](O[C@H]2[C@@H](O)C[C@H](O[C@H]3[C@@H](O)C[C@H](O[C@H]4CC[C@@]5(C)[C@H](CC[C@@H]6[C@@H]5CC[C@]5(C)[C@H](C7COC(=O)C7)CC[C@]65O)C4)O[C@@H]3C)O[C@@H]2C)C[C@H](O)[C@@H]1O (stereo partly drawn) [Dihydro-digitoxin] | 3.40 | 1.42 | 32.40 ± 2.85 ×10^−4 mol l^−1 | 800.0 ± 112.0 | – | – | – | –
C[C@@H]1O[C@@H](O[C@H]2C[C@@H](O)[C@]3(CO)[C@H]4[C@H](O)C[C@]5(C)[C@@H]([C@@H]6COC(=O)C6)CC[C@]5(O)[C@@H]4CC[C@]3(O)C2)[C@H](O)[C@H](O)[C@H]1O [Dihydro-ouabain] | 0.15 | −0.71 | 45.50 ± 3.90 ×10^−4 mol l^−1 | 0.20 ± 0.00 | – | – | – | –
C[C@H]1O[C@@H](O[C@H]2CC[C@@]3(C)[C@H](CC[C@@H]4[C@@H]3CC[C@]3(C)[C@@H](C5=CC(=O)OC5)[C@@H](O)C[C@]43O)C2)C[C@H](O)[C@@H]1O [Gitoxigenin-mono-digitoxoside] | 0.83 | 0.46 | 2.56 ± 0.21 ×10^−4 mol l^−1 | 60.1 ± 10.0 | – | – | – | –
C[C@]12CC[C@H](O)C[C@H]1CC[C@@H]1[C@@H]2CC[C@]2(C)[C@@H](C3=CC(=O)OC3)[C@@H](O)C[C@]12O [Gitoxigenin] | 0.67 | 0.38 | 21.37 ± 0.97 ×10^−4 mol l^−1 | 44.1 ± 1.8 | – | – | – | –
C[C@H]1O[C@@H](O[C@H]2[C@@H](O)C[C@H](O[C@H]3[C@@H](O)C[C@H](O[C@H]4CC[C@@]5(C)[C@H](CC[C@@H]6[C@@H]5CC[C@]5(C)[C@@H](C7=CC(=O)OC7)[C@@H](O)C[C@]65O)C4)O[C@@H]3C)O[C@@H]2C)C[C@H](O)[C@@H]1O [Gitoxin] | 1.28 | 0.68 | 2.55 ± 0.14 ×10^−4 mol l^−1 | 48.0 ± 11.2 | – | – | – | –
CC(=O)O[C@H]1[C@@H](OC(C)=O)C[C@H](O[C@H]2[C@@H](OC(C)=O)C[C@H](O[C@H]3[C@@H](OC(C)=O)C[C@H](O[C@H]4CC[C@@]5(C)[C@H](CC[C@@H]6[C@@H]5CC[C@]5(C)[C@@H](C7=CC(=O)OC7)[C@@H](OC(C)=O)C[C@]65O)C4)O[C@@H]3C)O[C@@H]2C)O[C@@H]1C [Pentaacetylgitoxin] | 49.45 | 1.86 | 112.00 ± 10.70 ×10^−4 mol l^−1 | 2890.0 ± 668.0 | – | – | – | –
C[C@H]1O[C@@H](O[C@H]2[C@@H](OC=O)C[C@H](O[C@H]3[C@@H](OC=O)C[C@H](O[C@H]4CC[C@@]5(C)[C@H](CC[C@@H]6[C@@H]5CC[C@]5(C)[C@@H](C7=CC(=O)OC7)[C@@H](OC=O)C[C@]65O)C4)O[C@@H]3C)O[C@@H]2C)C[C@H](OC=O)[C@@H]1OC=O [Pentaformylgitoxin] | 8.99 | 1.85 | 0.23 ± 0.00 ×10^−4 mol l^−1 | 1440.0 ± 118.3 | – | – | – | –
C[C@]12CC[C@H]3[C@@H](CC[C@]4(O)C[C@@H](O)CC[C@]34C=O)[C@@]1(O)CC[C@@H]2C1=CC(=O)OC1 [k-Strophanthidin] | 0.42 | – | 17.80 ± 0.81 ×10^−4 mol l^−1 | 3.60 ± 0.5 | – | – | −0.14 | –
CO[C@H]1C[C@H](O[C@H]2CC[C@]3(C=O)[C@H]4CC[C@]5(C)[C@@H](C6=CC(=O)OC6)CC[C@]5(O)[C@@H]4CC[C@]3(O)C2)O[C@H](C)[C@H]1O [k-Strophanthin-α] | 0.79 | −0.09 | 1.29 ± 0.14 ×10^−4 mol l^−1 | 4.40 ± 0.3 | – | – | – | –
CO[C@H]1C[C@H](O[C@H]2CC[C@]3(C=O)[C@H]4CC[C@]5(C)[C@@H](C6=CC(=O)OC6)CC[C@]5(O)[C@@H]4CC[C@]3(O)C2)O[C@H](C)[C@H]1O[C@@H]1O[C@H](CO)[C@@H](O)[C@H](O)[C@H]1O [k-Strophanthin-β] | 0.22 | −0.50 | 2.51 ± 0.12 ×10^−4 mol l^−1 | 0.11 ± 0.01 | – | – | – | –
CO[C@H]1C[C@H](O[C@H]2CC[C@]3(C=O)[C@H]4CC[C@]5(C)[C@@H](C6=CC(=O)OC6)CC[C@]5(O)[C@@H]4CC[C@]3(O)C2)O[C@H](C)[C@H]1O[C@@H]1O[C@H](CO[C@@H]2O[C@H](CO)[C@@H](O)[C@H](O)[C@H]2O)[C@@H](O)[C@H](O)[C@H]1O [k-Strophanthin-γ] | 0.21 | −0.62 | 2.47 ± 0.25 ×10^−4 mol l^−1 | 0.15 ± 0.07 | – | – | – | –
COC1C(O)CC(OC2C(O)CC(OC3C(O)CC(OC4CCC5(C)C(CCC6C5CCC5(C)C(C7=CC(=O)OC7)CCC65O)C4)OC3C)OC2C)OC1C (stereo not drawn) [β-Methyldigitoxin] | 8.28 | 1.71 | 0.40 ± 0.03 ×10^−4 mol l^−1 | 1300.0 ± 227.0 | – | – | – | 1300
CO[C@H]1[C@@H](O)C[C@H](O[C@H]2[C@@H](O)C[C@H](O[C@H]3[C@@H](O)C[C@H](O[C@H]4CC[C@@]5(C)[C@H](CC[C@@H]6[C@@H]5C[C@@H](O)[C@]5(C)[C@@H](C7=CC(=O)OC7)CC[C@]65O)C4)O[C@@H]3C)O[C@@H]2C)O[C@@H]1C [β-Methyldigoxin] | 1.19 | – | 1.55 ± 0.06 ×10^−4 mol l^−1 | 63.3 ± 20.9 | – | – | – | –
Dihydro-digoxin | 0.51 | 0.24 | 40.90 ± 3.35 ×10^−4 mol l^−1 | – | – | – | – | –
α,β-Diacetyldigoxin | 4.31 | 1.16 | 1.27 ± 0.02 ×10^−4 mol l^−1 | 392.0 ± 82.0 | – | – | – | –
α,β-Dimethyldigoxin | 2.76 | 0.94 | 1.28 ± 0.06 ×10^−4 mol l^−1 | 138.0 ± 12.1 | – | – | – | –
α-Acetyldigoxin | 0.99 | 0.50 | 2.50 ± 0.31 ×10^−4 mol l^−1 | 54.6 ± 7.8 | – | – | – | –
α-Methyldigoxin | 1.13 | 0.54 | 2.23 ± 0.11 ×10^−4 mol l^−1 | 56.6 ± 9.8 | – | – | – | –
β-Acetyldigoxin | 1.25 | 0.70 | 1.60 ± 0.02 ×10^−4 mol l^−1 | 99.2 ± 4.1 | – | – | – | –
